TGI and GI50 data for 30 compounds are collected here from PubChem BioAssay (NCI).

Assay in all cases: inhibition of tumour cell growth, NCI panel, 48 h
Assay [1] has as its system 786-0 renal.
Assay [2] has as its system CAKI-1 renal.
For assay [3], the system named is HCT-116 colon.
The subject of assay [4] is NCI-H23 lung.
Assay [5] has as its system NCI-H460 lung.
In assay [6] the test system is RPMI-8226 leukemia.
The subject of assay [7] is SF-268 CNS.
Assay [8] has as its system SF-539 CNS.
Assay [9] has as its system A498 renal.
Assay [10] relates to SF-295 CNS.

SMILES strings stand for the structures. “And” between values parts separate entries of the source, which are not always exact repeats. Identical values can stand only once.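 Following 48 hours of exposure in 96-well plates, responses at five concentrations were used to interpolate endpoints linearly. At the GI50, growth is halved. TGI is the concentration that stops growth completely.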

In the case of `CC(=O)N/N=C1\NN(C(C)=O)C2(S1)C(=O)Nc1ccccc12` (centres undefined), the TGI in assay [1], in assay [2], in assay [3], in assay [4], in assay [5] and in [6] was over 100 µM throughout. The TGI in [7] and in assay [8] was over 100 µM each time.
For `CCCCCCCCCC[C@@H](O)[C@H]1CC[C@@H]([C@H]2CC[C@H]([C@H](O)CCCCCCCCCC[C@@H]3CC(CC(C)=O)C(=O)O3)O2)O1` (some centres undefined), the TGI was over 100 µM in assay [1]; 97 µM in assay [9]; over 100 µM in [2]; over 100 µM in [3]; over 100 µM in [4]; over 100 µM in [5]. Moreover, the TGI in [6] is 26.2 µM; in [7], over 100 µM; in assay [10] it was over 100 µM. The GI50 in assay [3] was 0.218 µM; in assay [4], 0.754 µM; in assay [5] it was 0.0647 µM; in [6], 5.03 µM; in [7], 27.4 µM; in [10], 0.483 µM.
Turning to `C=CC(=O)N1C/C(=C\c2ccc(F)cc2)C(=O)/C(=C/c2ccc(F)cc2)C1`, the TGI in assay [1] amounted to 0.346 µM; in [9], 1.48 µM; in [2], 1.7 µM; in assay [3], 0.105 µM; in assay [4], 3.32 µM; in assay [5], 2.04 µM. For the same compound, the TGI was 0.622 µM in [7], 1.2 µM in assay [10] and 0.653 µM in assay [8].
`CCCNC(=O)Cn1c(-c2ccccc2)cc2ccccc21`: the TGI is over 100 µM in assay [1]; over 100 µM in [2]; 70.4 µM in [3]; over 100 µM in assay [4]; over 100 µM in [5]; over 100 µM in assay [6]. Further, the TGI in assay [7], in assay [10] and in [8] was over 100 µM each time.
As for `NC(=O)CN1CCN(c2nc(N3CCCC3)c3nc(Cl)c(NCc4ccccc4)nc3n2)CC1`, the TGI in assay [1] is 18 µM; in [2] it was over 50 µM; in assay [3] it was 14.7 µM; in assay [4], 35.6 µM; in [5], 17.5 µM; in assay [6] it was 19.8 µM. Moreover, the TGI was determined as 17 µM in assay [7], 16.3 µM in assay [10] and 17.5 µM in [8].
As for `CCn1c2ccccc2c2cc(NC(=O)c3c(C)[nH]c(=O)[nH]c3=S)ccc21`, the TGI in [9], in assay [2], in [3], in assay [4], in assay [5] and in assay [6] was over 100 µM each time. For the same compound, the TGI in assay [10] was over 100 µM.
For `CN1C(C(=O)Nc2ccccn2)=C(O)c2ccccc2S1(=O)=O`, the TGI in [1], in [2], in [3], in assay [4], in assay [6] and in assay [7] was over 100 µM in each case. The TGI in assay [10] and in assay [8] was over 100 µM throughout.
In the case of `CCCCC[C@@H]1OC(=O)[C@@]2(CC3c4ccccc4C2c2ccccc23)[C@H]1C(=O)OC`, the TGI in assay [1] is over 100 µM; in [9], 82.5 µM; in assay [2] it was over 100 µM; in assay [3], over 100 µM; in [4] it was over 100 µM; in assay [5] it was over 100 µM. For the same compound, the TGI in [6] was 54.3 µM; in assay [7], over 100 µM; in assay [10], over 100 µM.
Regarding `Cc1cc2nnn(C3CCCO3)c2cc1C` (centres undefined), the TGI in [1], in assay [9], in [2], in [3], in [4] and in assay [5] was over 100 µM in each case. Also, the TGI in [7], in assay [10] and in assay [8] was over 100 µM each time.
On to `NC(=S)NS(=O)(=O)c1ccc(Cl)cc1Cl`, for which the TGI in [1], in [2], in assay [3], in assay [4], in assay [5] and in assay [6] was over 100 µM throughout. The TGI in assay [7], in assay [10] and in assay [8] was over 100 µM each time.
`COC(=O)[C@]12CCC(=O)N1[C@H](C(=O)O)Cc1c2[nH]c2ccccc12`: the TGI in [1], in [9], in [2], in [3], in [4] and in assay [5] was over 100 µM throughout. Moreover, the TGI in assay [7], in assay [10] and in assay [8] was over 100 µM each time.
For the compound `CC(C)=CCC/C(C)=C/CCC1(C)C2COC(=O)C21` (centres undefined), the TGI in [1], in assay [9], in assay [2], in assay [3], in assay [4] and in [5] was over 100 µM throughout. Moreover, the TGI in assay [7] and in assay [10] was over 100 µM throughout.
As to `Nc1ncnc2c(C3OC(CO)C(O)C3O)c[nH]c12` (centres undefined), the TGI in assay [1] was 16.4 µM; in assay [9], 0.113 µM and 0.0973 µM; in [2] it was 0.402 µM; in assay [3], 0.16 µM; in assay [4], 0.0792 µM and 0.0756 µM; in assay [5], 0.048 µM and 0.0128 µM. Besides, the TGI in [7] is 0.559 µM; in assay [10], 1.02 µM; in assay [8], 0.0546 µM and 0.0374 µM. For the same compound, the values for the GI50 in assay [4] and in assay [8] were under 0.0104 µM and under 0.0117 µM, respectively.
As for `O=C(O)C1(Cc2ccc3c(c2)CCC3)Cc2cc3c(cc2C1)CCC3`, the TGI in [1], in assay [9], in assay [3], in assay [6], in [7] and in assay [8] was over 100 µM throughout.
On to `CNc1ccc([N+](=O)[O-])cc1C(=O)N1CCC[C@H]1CO`, for which the TGI in assay [1], in [9], in [2], in assay [3], in [4] and in assay [5] was over 100 µM in each case. Besides, the TGI in assay [6], in assay [7] and in assay [10] was over 100 µM each time.
For the compound `O/N=C1/CCCCC1NO` (centres undefined), the TGI in assay [1], in assay [2], in [3], in [4], in assay [5] and in [6] was over 100 µM in each case. Besides, the TGI in assay [7], in assay [10] and in [8] was over 100 µM throughout.
Turning to `COC(=O)C1CC(C=O)=C(SC)N1` (centres undefined), the TGI in assay [1], in assay [9], in assay [2], in [3], in [4] and in assay [5] was over 50 µM throughout. The TGI in [6], in [7] and in [10] was over 50 µM throughout.
Take `O=c1oc2ccccc2cc1-c1nc2ccccc2s1`: the TGI was 10.6 µM in assay [1]; 29.4 µM in [9]; 15.6 µM in assay [2]; 39.4 µM in assay [4]; 53 µM in [5]; over 85 µM in assay [6]. The same compound had a TGI in assay [7] of 25.2 µM.
Consider `N#Cc1nc(Cc2cccs2)oc1N`, for which the TGI in assay [1], in assay [9], in [2], in assay [3], in [6] and in assay [7] was over 100 µM each time.
With `CC(C)(C)OC(=O)N[C@@H](Cc1ccccc1)C(=O)N1CC[C@@H](C(=O)N2[C@H]3CC4CC[C@@]3(CS2(=O)=O)C4(C)C)N1`, the TGI in [1], in assay [9], in assay [2], in assay [3], in [4] and in assay [5] was over 100 µM in each case. Besides, the TGI in assay [6] and in assay [7] was over 100 µM in each case.
For the compound `Cc1ccc(Oc2cc(C)ccc2P(=O)(O)O)cc1`, the TGI in assay [1], in assay [2], in assay [3], in assay [4], in assay [6] and in assay [7] was over 100 µM in each case. Further, the TGI in [10] and in [8] was over 100 µM in each case.
Take `COc1ccc(/C(Cl)=C(\C=O)c2ccc(Cl)cc2)cc1`: the TGI in assay [9] is 74 µM; in assay [2], over 100 µM; in assay [3], 20.8 µM; in assay [4] it was 17.1 µM; in assay [5] it was over 100 µM; in assay [7] it was 58.7 µM. The compound further returned a TGI in assay [10] of 19.1 µM.
Regarding `COc1cc(/C=C/C=C2\CC(C)C/C(=C\C=C\c3ccc(O)c(OC)c3)C2=O)ccc1O` (centres undefined), the TGI in assay [1] is 47.9 µM; in assay [2], 33.2 µM; in [3] it was over 100 µM; in assay [4], 40.2 µM; in assay [5], 92.3 µM; in assay [6], 48.1 µM. Also, the TGI in assay [7] is over 100 µM; in [8] it was 82.3 µM.
With `OCC1=C[C@@](COCc2ccccc2)(OCc2ccccc2)[C@@H](OCc2ccccc2)[C@@H]1OCc1ccccc1`, the TGI in [1] worked out at 52.9 µM; in [9], 31.8 µM; in [2], 45.1 µM; in [3], 47 µM; in assay [4] it was 38.8 µM; in [5] it was 53.1 µM. Also, the TGI was 7.33 µM in [6], over 100 µM in assay [7] and 46.7 µM in [10].
Turning to `Brc1ccc2[nH]cc(-c3nc(-c4c[nH]c5ccncc45)cs3)c2c1`, the GI50 was 1.81 µM in [9]; 1.64 µM in assay [4]; 2.48 µM in assay [6]; 1.71 µM in assay [10]; 1.72 µM in assay [8]. In addition, the TGI in assay [9] was 3.22 µM; in assay [4], 3.17 µM; in assay [6], 5.23 µM; in [10], 3.14 µM; in assay [8], 3.11 µM.
Regarding `O=C1/C(=C/c2ccc(Cl)c(Cl)c2)CN(C(=O)CCN2CCOCC2)C/C1=C\c1ccc(Cl)c(Cl)c1`, in assay [2], the GI50 was 0.579 µM; the TGI is 3.4 µM and 3.53 µM and 2.03 µM.
For the compound `COc1cc(/C=C2\N=C(c3ccccc3)N(c3ccc(C(=O)c4ccccc4)cc3N3C(=O)/C(=C/c4cc(OC)c(OC)c(OC)c4)N=C3c3ccccc3)C2=O)cc(OC)c1OC`, the TGI in assay [1] is over 100 µM; in assay [9] it was 43 µM; in [2] it was over 100 µM; in assay [3] it was 52.2 µM; in [4] it was 41.6 µM; in assay [5] it was 23.8 µM. Also, the TGI was over 100 µM in [6], over 100 µM in [7] and 55.9 µM in assay [10].
On to `CCC[CH2][Ge]([CH2]CCC)([CH2]CCC)[O]C(=O)CCl`, for which the GI50 is 5.26 µM in assay [2]; 0.498 µM in [3]; 0.115 µM in assay [4]; 0.518 µM in assay [5]; 10.2 µM in assay [7]; 1.65 µM in assay [8]. Besides, the TGI was determined as 20.3 µM in [2]; 13.3 µM in assay [3]; 12.5 µM in assay [4]; 13.2 µM in [5]; 23.1 µM in assay [7]; 6.85 µM in assay [8].
Take `CC1=C(C(=O)OC(C)C)C(c2cccc([N+](=O)[O-])c2)C(C(=O)OC(CO[N+](=O)[O-])CO[N+](=O)[O-])=C(C)N1` (centres undefined): the TGI is over 100 µM in [1]; over 100 µM in [2]; 9.36 µM in assay [3]; over 100 µM in [4]; over 36.7 µM in assay [5]; 3.6 µM in assay [6]. The results for the TGI in assay [7], in assay [10] and in [8] were 22.7 µM, 0.991 µM and 16.3 µM, respectively.
Take `CC(=O)Nc1oc(C)nc1C#N`: the TGI in assay [1], in assay [9], in assay [2], in assay [3], in assay [6] and in [7] was over 100 µM throughout.
